Laboratory results published in ChEMBL document CHEMBL5230117, “Chalcones: Unearthing their therapeutic possibility as monoamine oxidase B inhibitors” (Eur J Med Chem, 2020).
Each block holds one molecule with its values, some of them ahead of it.

Assays:
[1] = species on record: Homo sapiens; assay: Selectivity index, ratio of IC50 for human MAO-A to IC50 for human MAO-B by fluorescence based assay
[2] = target: T1, Amine oxidase [flavin-containing] B (Homo sapiens, UniProt P27338); assay: Inhibition of human MAO-B using kynuramine as substrate incubated for 20 mins by fluorescence based assay relative to control
T1 sequence (P27338 whole entry): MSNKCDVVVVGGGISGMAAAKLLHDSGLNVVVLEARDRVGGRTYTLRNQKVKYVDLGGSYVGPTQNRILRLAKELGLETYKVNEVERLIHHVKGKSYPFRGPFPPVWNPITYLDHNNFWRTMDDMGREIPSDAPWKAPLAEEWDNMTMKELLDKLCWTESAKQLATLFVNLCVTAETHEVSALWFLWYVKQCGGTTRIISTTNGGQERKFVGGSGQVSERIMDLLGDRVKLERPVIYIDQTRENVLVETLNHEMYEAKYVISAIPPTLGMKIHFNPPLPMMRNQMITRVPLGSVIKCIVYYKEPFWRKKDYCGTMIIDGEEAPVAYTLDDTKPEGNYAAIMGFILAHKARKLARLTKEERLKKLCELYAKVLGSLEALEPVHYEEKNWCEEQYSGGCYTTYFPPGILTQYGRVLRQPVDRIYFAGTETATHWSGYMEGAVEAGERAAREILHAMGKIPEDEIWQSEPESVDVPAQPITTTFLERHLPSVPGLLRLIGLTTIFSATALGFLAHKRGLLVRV

[3] = target: T2, Amine oxidase [flavin-containing] A (Homo sapiens, UniProt P21397); assay: Inhibition of human MAO-A using kynuramine as substrate incubated for 20 mins by fluorescence based assay relative to control
T2 sequence (P21397 whole entry): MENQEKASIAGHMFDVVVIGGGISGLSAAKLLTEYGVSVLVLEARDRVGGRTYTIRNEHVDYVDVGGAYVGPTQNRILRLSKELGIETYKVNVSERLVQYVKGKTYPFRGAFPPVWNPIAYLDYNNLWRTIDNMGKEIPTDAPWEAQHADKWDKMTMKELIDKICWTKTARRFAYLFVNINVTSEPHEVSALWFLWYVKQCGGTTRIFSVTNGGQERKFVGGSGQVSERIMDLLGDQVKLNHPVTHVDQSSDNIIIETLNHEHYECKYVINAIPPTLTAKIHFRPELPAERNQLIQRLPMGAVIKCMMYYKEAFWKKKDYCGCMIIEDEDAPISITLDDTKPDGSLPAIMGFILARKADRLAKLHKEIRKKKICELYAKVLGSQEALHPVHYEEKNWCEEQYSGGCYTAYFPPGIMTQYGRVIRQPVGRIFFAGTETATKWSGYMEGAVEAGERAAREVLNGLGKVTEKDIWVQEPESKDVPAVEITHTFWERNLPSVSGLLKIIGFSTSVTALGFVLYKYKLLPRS

[4] = target: T1, Amine oxidase [flavin-containing] B; assay: Inhibition of human MAO-B
[5] = target: T1, Amine oxidase [flavin-containing] B; assay: Inhibition of human MAO-B using kynuramine as substrate incubated for 30 mins by fluorescence based assay; conditions: 0.5 h
[6] = species on record: Homo sapiens; assay: Selectivity index, ratio of IC50 for human MAO-A to IC50 for human MAO-B
[7] = target: T1, Amine oxidase [flavin-containing] B; assay: Binding affinity to human MAO-B using p-tyramine as substrate incubated for 15 mins by amplex red dye based microplate assay
[8] = target: T2, Amine oxidase [flavin-containing] A; assay: Inhibition of human MAO-A using kynuramine as substrate incubated for 10 mins by continuous spectrophotometric method
[9] = target: T1, Amine oxidase [flavin-containing] B; assay: Inhibition of human MAO-B using benzylamine as substrate
[10] = target: T1, Amine oxidase [flavin-containing] B; assay: Binding affinity to human MAO-B using kynuramine as substrate incubated for 30 mins by absorbance based assay
[11] = target: T1, Amine oxidase [flavin-containing] B; assay: Inhibition of human MAO-B using p-tyramine as substrate by fluorimetric based assay

Compound: COc1cc(O)ccc1C(=O)/C=C/c1ccc(O)cc1
Ratio IC50 [1]: 9.9
IC50 [2]: 380 nM
IC50 [3]: 10100 nM

Compound: COc1ccc(C(=O)/C=C/c2ccc(N(C)C)cc2)cc1
inhibition (INH) [5]: < 75%

Compound: COc1cc(O)c(C(=O)/C=C/c2ccccc2)c(O)c1
Ratio IC50 [1]: 0.63

Compound: O=C(/C=C/c1csc2ccccc12)c1ccco1
Ratio IC50 [6]: 12.6
Ki [7]: 72 nM

Compound: CC/C(C)=N/Oc1ccc(C(=O)/C=C/c2ccccc2)cc1
Ratio IC50 [6]: > 120
IC50 [8]: > 10000 nM
IC50 [9]: 86 nM

Compound: O=C(/C=C/c1ccc(O)c(O)c1O)c1ccco1
Ki [10]: 3550 nM

Compound: O=C(/C=C/c1ccc(Cl)cc1Cl)c1ccco1
Ki [10]: 850 nM

Compound: COc1cc(O)c(C(=O)/C=C/c2ccccc2O)c(OC)c1
Ratio IC50 [1]: 0.14
IC50 [2]: 2710 nM
IC50 [3]: 390 nM

Compound: CC(C)=CCC/C(C)=C/Cc1c(O)ccc(C(=O)/C=C/c2ccc(O)cc2)c1O [XANTHOANGELOL]
Ratio IC50 [1]: > 3.03
IC50 [2]: 13200 nM
IC50 [3]: > 40000 nM

Now from value to molecule:

IC50 [4]: < 100 nM
Compound: O=C(/C=C/c1cccc2c1OCO2)c1ccc(Br)cc1

IC50 [4]: 3.4 nM
Compound: Cc1ccc(/C=C/C(=O)c2ccc3c(c2)OCCO3)cc1

Ratio IC50 [1]: 0.1
IC50 [2]: 7020 nM
IC50 [3]: 720 nM
Compound: CC(C)=CCc1cc(C(=O)/C=C/c2ccc(O)c(O)c2)c(O)cc1O [BROUSSOCHALCONE A]

IC50 [4]: < 100 nM
Compound: O=C(/C=C/c1cccc2c1OCO2)c1cccc(Br)c1

IC50 [4]: < 100 nM
Compound: O=C(/C=C/c1cccc2c1OCO2)c1ccc(Cl)cc1

Ratio IC50 [1]: > 28.8
IC50 [2]: 1390 nM
IC50 [3]: > 40000 nM
Compound: COc1ccc(C(=O)/C=C/c2ccc(O)cc2)c(O)c1CC=C(C)C

Ratio IC50 [6]: 172
Ki [7]: 4.1 nM
Compound: O=C(/C=C/C=C/c1ccccc1)c1ccco1

IC50 [4]: < 100 nM
Compound: O=C(/C=C/c1cccc2c1OCO2)c1cccc(Cl)c1

inhibition (INH) [5]: < 75%
Compound: COc1ccc(/C=C/C(=O)c2ccc(Cl)cc2)cc1

IC50 [11]: 2600 nM
Compound: COc1cc2c(Nc3ccc(C(=O)/C=C/c4nc(C)c(C)nc4C)cc3)ncnc2c(OC)c1OC

Ratio IC50 [6]: 120
Ki [7]: 10 nM
Compound: O=C(/C=C/c1ccc(Br)cc1)c1c[nH]c2ccccc12

Ki [10]: 300 nM
Compound: COC(=O)c1ccc(/C=C/C(=O)c2ccco2)cc1
